# Key:
# IL-6 = details: low dose PO group (15 mg/kg), by 12 h post-dose
# GM-CSF = GM-CSF in plasma and colon tissue by ELISA, DSS-induced colitis mouse model; assay type: in vivo, mice; details: between IC and PO treatment groups, plasma or colon tissue (data not shown)
# [1] = Pharmacokinetic study of oral vs intra-cecal administration of tacrolimus: blood, rectal content, GI tissue and luminal content (Example 13); design: species or system Yorkshire-Cross farm swine; details: female, Yorkshire-Cross, swine, in vivo, 0.09 mg/kg
# From the text: No further randomization procedure was employed.
compound,measurement,setting,value
C[C@@H]1CCN(C(=O)CC#N)C[C@@H]1N(C)c1ncnc2[nH]ccc12.O=C(O)CC(O)(CC(=O)O)C(=O)O [tofacitinib citrate],IL-6 expression in colon tissue,IL-6,Recovery from IL-6 inhibition
C[C@@H]1CCN(C(=O)CC#N)C[C@@H]1N(C)c1ncnc2[nH]ccc12 [tofacitinib],GM-CSF levels,GM-CSF,nor was there a significant difference
C=CC[C@@H]1/C=C(\C)C[C@H](C)C[C@H](OC)[C@H]2O[C@@](O)(C(=O)C(=O)N3CCCC[C@H]3C(=O)O[C@H](/C(C)=C/[C@@H]3CC[C@@H](O)[C@H](OC)C3)[C@H](C)[C@@H](O)CC1=O)[C@H](C)C[C@@H]2OC [tacrolimus],Tissue(mean) (ng/g)/Trough(12 hr)(ng/mL) Ratio,[1],0
